Experiments:
human mast cells [1] = test: Calcium flux assay in antigen-stimulated human mast cells; format: cell-based; settings: 2 hours treatment, NP-BSA stimulation
Procedure: (§1) Human mast cells were derived from bone marrow CD34+ cells from six healthy donors for up to eight weeks by culturing CD34+ cells in StemSpan SFEM II (Stem Cell Technologies) supplemented with stem cell factor (SCF; 100 ng/mL; R&D System), IL-6 (R&D Systems), IL-3 (R&D Systems) and 1% penicillin/streptomycin (P/S; Gibco) for the first 10 days and in StemSpan SFEM II supplemented with SCF and IL-6 and 1% P/S for the remaining time in culture. […] Supernatant was collected and histamine levels were measured using a Histamine ELISA kit (Eagle Biosciences). […] Percent of activated mast cells was calculated as number of activated mast cells over the total number of mast cells.
Compound 128 Inhibits Calcium Signaling in Human Mast Cells. […] The median fluorescence intensity of cytosolic calcium was measured across the stimulation time period and graphed to represent the calcium influx profile. The area under the curve (AUC) of the calcium influx profile was calculated and normalized as a percent of stimulated control. […]

basophils [2] = test: Comparison of BTK inhibitors by BAT (CD63, CD203c); format: cell-based, human; settings: concentration of 1 μM, 2 hours, blood from a healthy donor
Procedure: The BAT assay using the Flow Cast Basophil Activation Kit (Buhlmann Diagnostics; Catalog #B-CCR-STCON) was then conducted following manufacturer instructions by (1) stimulating the blood with anti-FcεR stimulation control in stimulation buffer with IL-3 and staining cells for CCR3 and CD63 for 15 minutes at 37° C., (2) lysing red blood cells and fixing cells with Lysing Reagent at room temperature for 10 minutes, (3) washing cells with Wash Buffer, and (4) acquiring data on a flow cytometer. Activated basophils were defined as CCR3+, low side scatter and CD63+. Percent of activated basophils was calculated as number of activated basophils over the total number of basophils. A four-parameter logistic regression was applied to determine the EC50 and EC90.
Blood samples were gently rocked at room temperature for 2 hours. […] Activated basophils were also defined as CCR3+, low side scatter and CD203c+.

basophils [3] = test: Anti-IgE induced IL-4 production from basophils in whole blood; format: cell-based, human; settings: whole blood from a healthy donor, two hours treatment, anti-IgE six hours
Procedure: Human mast cells lines, ROSA with wildtype KIT and ROSA […] with D816V KIT mutation (ISM-like cells), were licensed from CRNS Innovation and cultured with or without stem cell factor (100 ng/ml), respectively (FIG. 12A). ROSA cells were stimulated with IL-4 (20 ng/ml; R&D Systems) for 18 hours, stained for FcεRIα (Becton Dickinson) for 30 minutes on ice, washed twice with FACS buffer and data was acquired on a flow cytometer. The median fluorescence intensity of FcεRIα was measured. […] Whole blood from a healthy donor was treated with Compound 128 for two hours and the basophils were stimulated with anti-IgE (1 μg/mL; Beckman Coulter) for six hours (FIG. 12B). Plasma was collected and IL-4 levels were measured using the BD CBA human soluble protein master buffer kit and BD CBA human soluble protein flex set for IL-4 (Becton Dickinson). A four-parameter logistic regression analysis was performed on the cytokine levels to determine the EC50 and EC90. […] Therefore, Compound 128 may indirectly effect FcεRI expression by the reduction of IL-4 levels.

ISM-like mast cells = test: Antigen-induced degranulation (CD63 and histamine) in ISM-like mast cells; format: cell-based, human; settings: ISM-like (+SCF) mast cells, two hours treatment prior to stimulation
Procedure: as §1
Human mast cells were differentiated from bone marrow CD34+ cells from six healthy donors, cultured and sensitized as set forth in Example 4. […] The median fluorescence intensity of phosphorylated BTK was measured. CD63 and histamine levels in these cells were measured and percent activated mast cells were calculated as set forth in Example 4. The percent of stimulated control for pBTK, activated mast cells (CD63+) and histamine levels was calculated. […]

human mast cells [4] = test: ISM-like mast cell chemotaxis towards conditioned media (Transwell); format: cell-based; settings: conditioned media from ISM-like mast cells treated two hours
Procedure: Human mast cells were differentiated from bone marrow CD34+ cells from four healthy donors as set forth in Example 4. Cells were used to produce conditioned media in ISM-like conditions. Conditioned media was the supernatant collected from mast cells cultured with stem cell factor (100 ng/ml), sensitized with NP-IgE (0.1 μg/mL) for 18 hours, treated with Compound 128 for two hours, and stimulated with NP-BSA (antigen; 0.1 μg/mL) for four hours. Migration of mast cells in the top chamber on Transwell […] inserts (Corning) towards the antigen-stimulated conditioned media in the bottom chamber was quantified after four hours using the CellTiter-Glo™ Luminescent Cell Viability Assay Kit (Promega). The amount of luminescence is correlated with live cell numbers. Fold change over the non-activated control was calculated.

C=CC(=O)N1CCC(F)(CNc2ncnc(N)c2-c2ccc(Oc3ccccc3)cc2)CC1 [Compound 128, 1-(4-(((6-amino-5-(4-phenoxyphenyl)pyrimidin-4-yl)amino)methyl)-4-fluoropiperidin-1-yl)prop-2-en-1-one]
calcium influx, percent of stimulated control (human mast cells [1]; ISM-like (+SCF) mast cells): less than 7% | calcium influx, percent of stimulated control (human mast cells [1]; healthy (−SCF) mast cells): < 3% | basophil activation (CD63+, CD203c+) (basophils [2]): fully inhibits basophil activation | IgE-mediated IL-4 production (basophils [3]): potently inhibited | IgE-mediated degranulation (CD63 and histamine) (ISM-like mast cells): potently inhibits | chemoattractant activity of mast cells (chemotaxis, fold change over non-activated control) (human mast cells [4]): inhibited
